Columns and labels:
HCV replicon = HCV replicon FRET / luciferase assay; assay type: cell-based
Method: FRET Assay Preparation. The HCV FRET screening assay was performed in 96-well cell culture plates. The FRET peptide (Anaspec, Inc.) (Taliani et al., Anal. Biochem. 1996, 240, 60-67) contains a fluorescence donor, EDANS, near one end of the peptide and an acceptor, DABCYL, near the other end. The fluorescence of the peptide is quenched by […] resonance energy transfer (RET) between the donor and the acceptor, but as the NS3 protease cleaves the peptide the products are released from RET quenching and the fluorescence of the donor becomes apparent. The assay reagent was made as follows: 5X cell Luciferase cell culture lysis reagent from Promega (#E153A) diluted to 1X with dH2O, NaCl added to 150 mM final, the FRET peptide diluted to 20 µM final from a 2 mM stock.
To prepare plates, HCV replicon cells, with or without a Renilla luciferase reporter gene, were trypsinized and plated in a 96-well plate with titrated test compounds added in columns 3 through 12; columns 1 and 2 contained a control compound (HCV control inhibitor), and the bottom row contained cells with DMSO only. The plates were then placed in a CO2 incubator at 37 °C.
Assays. Subsequent to addition of the test compounds described above (FRET Assay Preparation), at various times the plate was removed and Alamar blue solution (Trek Diagnostics, #00-100) was added to measure cellular toxicity. After reading in a Cytoflour 4000 instrument (PE Biosystems), plates were rinsed with PBS and then used for FRET assay by the addition of 30 ul of the FRET peptide assay reagent described above (FRET Assay Preparation) per well. The plate was then placed into the Cytoflour 4000 instrument which had been set to 340 excite/490 emission, automatic mode for up to 20 cycles and the plate read in a kinetic mode. Typically, the signal to noise using an endpoint analysis after the reads was at least three-fold. Alternatively, after Alamar blue reading, plates were rinsed with PBS, then used for luciferase assay using the Promega Dual-Glo Luciferase Assay System or the Promega EnduRen Live Cell Substrate assay.
Compound analysis was performed by quantification of the relative HCV replicon inhibition and the relative cytotoxicity values. To calculate cytoxicity values, the average Alamar Blue fluorescence signals from the control wells were set as 100% non-toxic. The individual signals in each of the compound test wells were then divided by the average control signal and multiplied by 100% to determine […]. To calculate the HCV replicon inhibition values, an average background value was obtained from the two wells containing the highest amount of HCV control inhibitor at the end of the assay period. These numbers were similar to those obtained from naïve Huh-7 cells. The background numbers were then subtracted from the average signal obtained from the control wells and this number was used as 100% activity. The individual signals in each of the compound test wells were then divided by the averaged control values after background subtraction and multiplied by 100% to determine percent activity. […] The two numbers generated for the compound plate, percent cytoxicity and percent activity, were used to determine compounds of interest for further analysis.

HCV NS5B = molecular target: T1, HCV NS5B (Hepatitis C virus genotype 1b, UniProt Q9WMX2); experiment: HCV NS5B RdRp enzyme assay (standard or modified); assay type: biochemical; conditions: HCV RdRp genotype 1b enzyme; not stated whether standard or modified assay
T1 construct: The cDNA encoding the NS5B protein of HCV, genotype 1b; made in house; host or cells: E. coli BL21(DE3)
T1 sequence (Q9WMX2 2420-2992): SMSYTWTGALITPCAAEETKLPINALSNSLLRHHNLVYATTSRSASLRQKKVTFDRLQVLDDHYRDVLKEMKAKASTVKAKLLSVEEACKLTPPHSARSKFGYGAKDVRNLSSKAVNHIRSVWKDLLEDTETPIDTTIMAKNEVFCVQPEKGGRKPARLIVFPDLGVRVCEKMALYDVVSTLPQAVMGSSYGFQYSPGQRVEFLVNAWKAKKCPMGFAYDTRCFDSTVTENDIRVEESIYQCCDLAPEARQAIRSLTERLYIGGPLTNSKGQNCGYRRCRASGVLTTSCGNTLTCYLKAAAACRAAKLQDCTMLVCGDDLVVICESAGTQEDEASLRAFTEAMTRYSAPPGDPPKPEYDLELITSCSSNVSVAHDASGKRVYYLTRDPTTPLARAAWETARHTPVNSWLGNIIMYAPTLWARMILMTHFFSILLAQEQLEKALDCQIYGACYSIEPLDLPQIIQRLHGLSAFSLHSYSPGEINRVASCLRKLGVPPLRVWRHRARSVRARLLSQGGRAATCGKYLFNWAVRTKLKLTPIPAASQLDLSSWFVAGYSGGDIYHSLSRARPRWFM
Method: HCV NS5B RdRp cloning, expression, and purification. The cDNA encoding the NS5B protein of HCV, genotype 1b, was cloned into the pET21a expression vector. The protein was expressed with an 18 amino acid C-terminal truncation to enhance the solubility. The E. coli competent cell line BL21(DE3) was used for expression of the protein. Cultures were grown at 37 °C for ~ 4 hours until the cultures reached an optical density of 2.0 at 600 nm. The cultures were cooled to 20 °C and induced with 1 mM IPTG. Fresh ampicillin was added to a final concentration of 50 µg/ml and the cells were grown overnight at 20 °C.
The lysis buffer consisted of 20 mM Tris-HCl, pH 7.4, 500 mM NaCl, 0.5% triton X-100, 1 mM DTT, 1 mM EDTA, 20% glycerol, 0.5 mg/ml lysozyme, 10 mM MgCl2, 15 ug/ml deoxyribonuclease I, and Complete TM protease inhibitor tablets (Roche). After addition of the lysis buffer, frozen cell pellets were resuspended using a tissue homogenizer. To reduce the viscosity of the sample, aliquots of the lysate were sonicated on ice using a microtip attached to a Branson sonicator. The sonicated lysate was centrifuged at 100,000 x g for Ihr at 4 °C and filtered through a 0.2 µm filter unit (Coming).
The protein was purified using two sequential chromatography steps: Heparin sepharose CL-6B and polyU sepharose 4B (Pharmacia). The chromatography buffers were identical to the lysis buffer but contained no lysozyme, deoxyribonuclease I, MgCl2 or protease inhibitor and the NaCl concentration of the buffer was adjusted according to the requirements for charging the protein onto the column. Each column was eluted with a NaCl gradient which varied in length from 5-50 column volumes depending on the column type. […] The enzyme was aliquoted and stored at -80 °C.
Standard HCV NSSB RdRp enzyme assay. HCV RdRp genotype 1b assays were run in a final volume of 60 µl in 96 well plates (Coming 3600). The assay buffer is composed of 20 mM Hepes, pH 7.5, 2.5 mM KCl, 2.5 mM MgCl2, 1 mM DTT, 1.6 U RNAse inhibitor (Promega N2515), 0.01 mg/ml BSA (Sigma B6917), and 2 % glycerol. All compounds were serially diluted (3-fold) in DMSO and diluted further in water such that the final concentration of DMSO in the assay was 2%. HCV RdRp genotype 1b enzyme was used at a final concentration of 28 nM. A polyA template was used at 6 nM, and a biotinylated oligo-dT12 primer was used at 180 nM final concentration. Template was obtained commercially (Amersham 27-4110). Biotinylated primer was prepared by Sigma Genosys. 3H-UTP was used at 0.6 µCi (0.29 µM total UTP). Reactions were initiated by the addition of enzyme, incubated at 30 °C for 60 min, and stopped by adding 25 µl of 50 mM EDTA containing SPA beads (4 µg/µl, Amersham RPNQ 0007). Plates were read on a Packard Top Count NXT after >1hr incubation at room temperature.
Modified HCV NS5B RdRp enzyme assay. A modified enzyme assay was performed essentially as described for the standard enzyme assay except for the following: The biotinylated oligo dT12 primer was precaptured on streptavidin-coated SPA beads by mixing primer and beads in assay buffer and incubating at room temperature for one hour. Unbound primer was removed after centrifugation. The primer-bound beads were resuspended in 20 mM Hepes buffer, pH 7.5 and used in the assay at final concentrations of 20 nM primer and 0.67 µg/µl beads. Order of addition in the assay: enzyme (1.75 nM) was added to diluted compound followed by the addition of a mixture of template (0.36 nM), 3H-UTP (0.6 µCi, 0.29 µM), and primer-bound beads, to initiate the reaction; concentrations given are final. Reactions were allowed to proceed for 4 hours at 30° C.
IC50 values for compounds were determined using seven different [I].

[1] = HCV replicon cells, 50% reduction in FRET or luciferase activity

Row | SMILES | EC50 (HCV replicon; Hepatitis C virus) | IC50 (HCV NS5B) | EC50 (HCV replicon; [1])
1 | CCC(CC)S(=O)(=O)NC(=O)c1ccc2c(C3CCCCC3)c3n(c2c1)CC1(C(=O)N2C4CCC2CN(C)C4)CC1c1cc(OC)ccc1-3 (stereo not shown) | > 110 nM | – | –
2 | CCC(C)S(=O)(=O)NC(=O)c1ccc2c(C3CCCCC3)c3n(c2c1)CC1(C(=O)N2C4CCC2CN(C)C4)CC1c1cc(OC)ccc1-3 (stereo not shown) [drawing 45] | 1 to 500 nM | 1 to 500 nM | –
3 | COc1ccc2c(c1)C1CC1(C(=O)N1C3CCC1CN(C)C3)Cn1c-2c(C2CCCCC2)c2ccc(C(=O)NS(=O)(=O)CC(F)(F)F)cc21 (stereo not shown) | 1 to 500 nM | 1 to 500 nM | –
4 | COc1ccc2c(c1)[C@H]1C[C@@]1(C(=O)N1C3CCC1CN(C)C3)Cn1c-2c(C2CCCCC2)c2ccc(C(=O)NS(=O)(=O)C(C)C)cc21 | 1 to 500 nM | – | –
5 | COc1ccc2c(c1)[C@@H]1C[C@]1(C(=O)N1C3CCC1CN(C)C3)Cn1c-2c(C2CCCCC2)c2ccc(C(=O)NS(=O)(=O)CC(C)C)cc21 | 1 to 500 nM | 1 to 500 nM | –
6 | CCN(CC)C(=O)N1CC2CCC(C1)N2C(=O)C12CC1c1cc(OC)ccc1-c1c(C3CCCCC3)c3ccc(C(=O)NS(=O)(=O)C4CC4)cc3n1C2 (stereo not shown) | 1 to 500 nM | – | –
7 | CN1CC2CCC(C1)N2C(=O)C12CC1c1ccccc1-c1c(C3CCCCC3)c3ccc(C(=O)NS(=O)(=O)N(C)C)cc3n1C2 (stereo not shown) | 1 to 500 nM | 1 to 500 nM | –
8 | COc1ccc2c(c1)C1CC1(C(=O)N1C3CCC1CN(C)C3)Cn1c-2c(C2CCCCC2)c2ccc(C(=O)NS(=O)(=O)C3CCCC3)cc21 (stereo not shown) | 1 to 500 nM | 1 to 500 nM | –
9 | COc1ccc2c(c1)C1CC1(C(=O)N1C3CCC1CN(C)C3)Cn1c-2c(C2CCCCC2)c2ccc(C(=O)NS(=O)(=O)C(C)(C)C)cc21 (stereo not shown) | 1 to 500 nM | 1 to 500 nM | –
10 | CCCS(=O)(=O)NC(=O)c1ccc2c(C3CCCCC3)c3n(c2c1)CC1(C(=O)N2C4CCC2CN(C)C4)CC1c1cc(OC)ccc1-3 (stereo not shown) | 1 to 500 nM | 1 to 500 nM | –
11 | COc1ccc2c(c1)C1CC1(C(=O)N1C3CCC1CN(C)C3)Cn1c-2c(C2CCCCC2)c2ccc(C(=O)NS(=O)(=O)C3CCC3)cc21 (stereo not shown) [drawing 40] | – | 1 to 500 nM | 1 to 500 nM
12 | COc1ccc2c(c1)C1CC1(C(=O)N1C3CCC1CN(C)C3)Cn1c-2c(C2CCCCC2)c2ccc(C(=O)NS(=O)(=O)CCC(F)(F)F)cc21 (stereo not shown) | 1 to 500 nM | 1 to 500 nM | –
13 | CCCCS(=O)(=O)NC(=O)c1ccc2c(C3CCCCC3)c3n(c2c1)CC1(C(=O)N2C4CCC2CN(C)C4)CC1c1cc(OC)ccc1-3 (stereo not shown) | 1 to 500 nM | – | –
14 | COc1ccc2c(c1)C1CC1(C(=O)N1C3CCC1CN(C)C3)Cn1c-2c(C2CCCCC2)c2ccc(C(=O)NS(=O)(=O)C3CCCCC3)cc21 (stereo not shown) | 1 to 500 nM | – | –
15 | CCN(CC)C(=O)N1CC2CCC(C1)N2C(=O)C12CC1c1cc(OC)ccc1-c1c(C3CCCCC3)c3ccc(C(=O)NS(=O)(=O)N4CCN(C)CC4)cc3n1C2 (stereo not shown) | 1 to 500 nM | – | –
16 | CC(C)S(=O)(=O)NC(=O)c1ccc2c(C3CCCCC3)c3n(c2c1)CC1(C(=O)N2C4CCC2CN(C)C4)CC1c1ccccc1-3 (stereo not shown) | 1 to 500 nM | 1 to 500 nM | –
17 | COc1ccc2c(c1)C1CC1(C(=O)N1C3CCC1CN(C)C3)Cn1c-2c(C2CCCCC2)c2ccc(C(=O)NS(=O)(=O)C3CCC3)cc21 (stereo not shown) [drawing 51] | 1 to 500 nM | – | –
18 | COc1ccc2c(c1)C1CC1(C(=O)N1C3CCC1CN(C)C3)Cn1c-2c(C2CCCCC2)c2ccc(C(=O)NS(=O)(=O)C(C)C)cc21 (stereo not shown) | 1 to 500 nM | – | –
19 | COc1ccc2c(c1)C1CC1(C(=O)N1C3CCC1CN(C)C3)Cn1c-2c(C2CCCCC2)c2ccc(C(=O)NS(=O)(=O)CC(F)F)cc21 (stereo not shown) | 1 to 500 nM | – | –
20 | CCC(C)S(=O)(=O)NC(=O)c1ccc2c(C3CCCCC3)c3n(c2c1)CC1(C(=O)N2C4CCC2CN(C)C4)CC1c1cc(OC)ccc1-3 (stereo not shown) [drawing 52] | – | 1 to 500 nM | 1 to 500 nM
21 | COc1ccc2c(c1)C1CC1(C(=O)N1C3CCC1CN(C)C3)Cn1c-2c(C2CCCCC2)c2ccc(C(=O)NS(=O)(=O)C(F)(F)F)cc21 (stereo not shown) | 1 to 500 nM | – | –
22 | COc1ccc2c(c1)C1CC1(C(=O)N1C3CCC1CN(C)C3)Cn1c-2c(C2CCCCC2)c2ccc(C(=O)NS(=O)(=O)CC(C)C)cc21 (stereo not shown) | 1 to 500 nM | 1 to 500 nM | –

Source: patent publication EP2209789B1, “C[…] INDOLOB[…] NS5B INHIBITORS” (Bristol-Myers Squibb Company, priority 2007, dated 2009)
